# Data from US10807970B2 (priority 2016, dated 2020).
# Molecular target: human σ1 receptor (Homo sapiens, UniProt Q99720)
# Assay: Human σ1 receptor radioligand assay ([3H](+)-pentazocine, transfected HEK-293 membranes)
# Format: binding
# Parameters: μ and σ1 dual binding: key to the marks not given beside the values
# Details: one class symbol for both Ki-σ1 (human σ1 receptor, A1) and Ki-μ (human μ-opioid receptor, A2)
# Method in brief: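 Membranes from HEK-293 cells transfected with human σ1 receptor (7 μg) incubated with 5 nM [3H](+)-pentazocine in 50 mM Tris-HCl pH 8, 120 min at 37° C. Non-specific binding defined with 10 μM haloperidol. Bound radioligand separated by filtration, washed with ice-cold 10 mM Tris-HCl pH 7.4, and counted by scintillation.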
# human σ1 receptor, sequence (Q99720 whole entry): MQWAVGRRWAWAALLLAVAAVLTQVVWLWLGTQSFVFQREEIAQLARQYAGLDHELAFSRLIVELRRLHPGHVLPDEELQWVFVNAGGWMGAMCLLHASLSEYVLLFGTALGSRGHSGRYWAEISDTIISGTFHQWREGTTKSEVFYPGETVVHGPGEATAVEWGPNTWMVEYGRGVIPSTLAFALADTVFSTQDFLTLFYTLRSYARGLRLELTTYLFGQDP
row,SMILES,μ and σ1 dual binding
1,"CC(C)OCCN1CCN([C@@]2(C(=O)c3ccccn3)CCO[C@@H](C)C2)CC1 [Example 190, ((2S,4S)-4-(4-(2-isopropoxyethyl)piperazin-1-yl)-2-methyltetrahydro-2H-pyran-4-yl)(pyridin-2-yl)methanone]",++
2,"C[C@@H]1C[C@](C(=O)c2ccccn2)(N2CCN(CCc3ccccc3)CC2)CCO1 [Example 240, ((2R,4R)-2-methyl-4-(4-phenethylpiperazin-1-yl)tetrahydro-2H-pyran-4-yl)(pyridin-2-yl)methanone]",++
3,"CC(C)OCCN1CCN([C@]2(C(=O)c3ccccn3)CCOC2)CC1 [Example 242, (R)-(3-(4-(2-isopropoxyethyl)piperazin-1-yl)tetrahydrofuran-3-yl)(pyridin-2-yl)methanone]",++
4,"CC(C)OCCN1CCN([C@@]2(C(=O)c3ccccn3)CCOC2)CC1 [Example 243, (S)-(3-(4-(2-isopropoxyethyl)piperazin-1-yl)tetrahydrofuran-3-yl)(pyridin-2-yl)methanone]",++

# Same assay, conditions: one class symbol for both Ki-σ1 (human σ1 receptor, A1) and Ki-μ (human μ-opioid receptor, A2); read-out: μ and σ1 dual binding
row,Ki,SMILES
1,> 500 nM,"N#Cc1cc(CN2CCN(C3(C(=O)c4ccccn4)CCOCC3)CC2)ccc1F [Example 188, 2-fluoro-5-((4-(4-picolinoyltetrahydro-2H-pyran-4-yl)piperazin-1-yl)methyl)benzonitrile]"
2,> 500 nM,"CC(C)OCCN1CCN([C@]2(C(=O)c3ccccn3)CCO[C@H](C)C2)CC1 [Example 189, ((2R,4R)-4-(4-(2-isopropoxyethyl)piperazin-1-yl)-2-methyltetrahydro-2H-pyran-4-yl)(pyridin-2-yl)methanone]"
3,> 500 nM,"N#Cc1ccc(CN2CCN(C3(C4CC4)CCOCC3)CC2)cc1 [Example 191, 4-((4-(4-cyclopropyltetrahydro-2H-pyran-4-yl)piperazin-1-yl)methyl)benzonitrile]"
4,> 500 nM,"N#Cc1ccc(CN2CCN(C3(C(=O)c4ccccn4)CCOCC3)CC2)cc1F [Example 192, 2-fluoro-4-((4-(4-picolinoyltetrahydro-2-pyran-4-yl)piperazin-1-yl)methyl)benzonitrile]"
5,> 500 nM,"N#Cc1cccc(CN2CCN(C3(C(=O)c4ccccn4)CCOCC3)CC2)c1 [Example 193, 3-((4-(4-picolinoyltetrahydro-2H-pyran-4-yl)piperazin-1-yl)methyl)benzonitrile]"
6,> 500 nM,"O=C(c1ccccn1)C1(N2CCN(Cc3ccc(OC(F)(F)F)cc3)CC2)CCOCC1 [Example 194, pyridin-2-yl(4-(4-(4-(trifluoromethoxy)benzyl)piperazin-1-yl)tetrahydro-2H-pyran-4-yl)methanone]"
7,> 500 nM,"COc1ccc(CN2CCN(C3(C(=O)c4ccccn4)CCOCC3)CC2)cc1 [Example 195, (4-(4-(4-methoxybenzyl)piperazin-1-yl)tetrahydro-2H-pyran-4-yl)(pyridin-2-yl)methanone]"
8,> 500 nM,"COc1ccc(CN2CCN(C3(C(=O)c4ccccn4)CCOCC3)CC2)cc1F [Example 196, (4-(4-(3-fluoro-4-methoxybenzyl)piperazin-1-yl)tetrahydro-2H-pyran-4-yl)(pyridin-2-yl)methanone]"
9,> 500 nM,"O=C(c1ccccn1)C1(N2CCN(Cc3ccc(F)c(F)c3)CC2)CCOCC1 [Example 197, (4-(4-(3,4-difluorobenzyl)piperazin-1-yl)tetrahydro-2H-pyran-4-yl)(pyridin-2-yl)methanone]"
10,> 500 nM,"COc1cc(CN2CCN(C3(C(=O)c4ccccn4)CCOCC3)CC2)ccc1F [Example 198, (4-(4-(4-fluoro-3-methoxybenzyl)piperazin-1-yl)tetrahydro-2H-pyran-4-yl)(pyridin-2-yl)methanone]"

row,SMILES,Ki
1,"C[C@H]1C[C@@](C(=O)c2ccccn2)(N2CCN(CCc3ccccc3)CC2)CCO1 [Example 241, ((2S,4S)-2-methyl-4-(4-phenethylpiperazin-1-yl)tetrahydro-2H-pyran-4-yl)(pyridin-2-yl)methanone]",< 500 nM
